Experimental data taken from the NIST ThermoML archive (doi:10.1021/acs.jced.5b00385).

Conditions: Liquid, Vibrating tube method

CCOC(=O)CCC(=O)OCC [diethyl butanedioate]
Conditions | mass density [kg/m3]
283.56 K, 100010 kPa | 1102.48
283.57 K, 100 kPa | 1049.61
283.57 K, 1000 kPa | 1050.21
283.57 K, 3000 kPa | 1051.56
283.57 K, 5000 kPa | 1052.88
283.57 K, 10000 kPa | 1056.11
283.57 K, 15000 kPa | 1059.25
283.57 K, 30000 kPa | 1068.16
283.57 K, 40000 kPa | 1073.71
283.57 K, 50000 kPa | 1079
283.57 K, 60000 kPa | 1084.1
283.57 K, 70000 kPa | 1089.01
283.57 K, 80000 kPa | 1093.63
283.57 K, 90010 kPa | 1098.12
283.58 K, 20000 kPa | 1062.29
283.58 K, 25000 kPa | 1065.25
293.49 K, 100 kPa | 1039.78
293.49 K, 20000 kPa | 1053.11
293.49 K, 25000 kPa | 1056.23
293.49 K, 40000 kPa | 1065.07
293.49 K, 60000 kPa | 1075.9
293.5 K, 1000 kPa | 1040.41
293.5 K, 3000 kPa | 1041.81
293.5 K, 5000 kPa | 1043.2
293.5 K, 10000 kPa | 1046.6
293.5 K, 15000 kPa | 1049.91
293.5 K, 30000 kPa | 1059.25
293.5 K, 50000 kPa | 1070.61
293.5 K, 70000 kPa | 1080.89
293.5 K, 80000 kPa | 1085.77
293.51 K, 90000 kPa | 1090.39
293.51 K, 100000 kPa | 1094.9
303.42 K, 100 kPa | 1028.98
303.42 K, 1000 kPa | 1029.62
303.42 K, 20000 kPa | 1042.98
303.42 K, 25000 kPa | 1046.26
303.42 K, 60000 kPa | 1066.78
303.42 K, 70000 kPa | 1072.05
303.42 K, 80000 kPa | 1077.09
303.43 K, 3000 kPa | 1031.12
303.43 K, 5000 kPa | 1032.59
303.43 K, 15000 kPa | 1039.61
303.43 K, 30000 kPa | 1049.4
303.43 K, 40000 kPa | 1055.5
303.43 K, 50000 kPa | 1061.26
303.43 K, 90000 kPa | 1081.92
303.43 K, 100000 kPa | 1086.58
303.44 K, 10000 kPa | 1036.15
313.31 K, 15000 kPa | 1030.05
313.31 K, 50000 kPa | 1052.81
313.32 K, 5000 kPa | 1022.61
313.32 K, 10000 kPa | 1026.44
313.32 K, 30000 kPa | 1040.39
313.32 K, 40000 kPa | 1046.78
313.33 K, 100 kPa | 1018.75
313.33 K, 1000 kPa | 1019.44
313.33 K, 3000 kPa | 1021.07
313.33 K, 20000 kPa | 1033.63
313.33 K, 25000 kPa | 1037.06
313.33 K, 60000 kPa | 1058.52
313.33 K, 70000 kPa | 1064.01
313.33 K, 80000 kPa | 1069.21
313.33 K, 90000 kPa | 1074.2
313.33 K, 100000 kPa | 1078.99
323.18 K, 100 kPa | 1008.44
323.18 K, 1000 kPa | 1009.19
323.18 K, 3000 kPa | 1010.86
323.18 K, 10000 kPa | 1016.52
323.18 K, 15000 kPa | 1020.37
323.18 K, 20000 kPa | 1024.08
323.18 K, 25000 kPa | 1027.7
323.19 K, 5000 kPa | 1012.5
323.19 K, 30000 kPa | 1031.17
323.19 K, 40000 kPa | 1037.8
323.19 K, 50000 kPa | 1044.06
323.19 K, 60000 kPa | 1050.01
323.19 K, 70000 kPa | 1055.67
323.19 K, 80000 kPa | 1061.06
323.19 K, 90000 kPa | 1066.22
323.19 K, 100000 kPa | 1071.19
333.1 K, 100 kPa | 998.31
333.1 K, 1000 kPa | 999.11
333.1 K, 3000 kPa | 1000.91
333.1 K, 5000 kPa | 1002.64
333.11 K, 10000 kPa | 1006.85
333.11 K, 15000 kPa | 1010.94
333.11 K, 20000 kPa | 1014.85
333.11 K, 25000 kPa | 1018.62
333.11 K, 30000 kPa | 1022.27
333.11 K, 40000 kPa | 1029.2
333.11 K, 50000 kPa | 1035.72
333.11 K, 60000 kPa | 1041.91
333.11 K, 70000 kPa | 1047.69
333.11 K, 80000 kPa | 1053.26
333.11 K, 90000 kPa | 1058.57
333.11 K, 100000 kPa | 1063.7
342.97 K, 100 kPa | 987.87
342.97 K, 15000 kPa | 1001.22
342.97 K, 20000 kPa | 1005.3
342.97 K, 30000 kPa | 1013.07
342.97 K, 40000 kPa | 1020.32
342.97 K, 50000 kPa | 1027.1
342.97 K, 70000 kPa | 1039.64
342.97 K, 90000 kPa | 1050.91
342.97 K, 100000 kPa | 1056.19
342.98 K, 1000 kPa | 988.73
342.98 K, 3000 kPa | 990.63
342.98 K, 5000 kPa | 992.45
342.98 K, 10000 kPa | 996.91
342.98 K, 25000 kPa | 1009.24
342.98 K, 60000 kPa | 1033.53
342.98 K, 80000 kPa | 1045.43
352.82 K, 100 kPa | 977.64
352.82 K, 1000 kPa | 978.58
352.82 K, 3000 kPa | 980.59
352.82 K, 5000 kPa | 982.53
352.82 K, 10000 kPa | 987.26
352.82 K, 15000 kPa | 991.79
352.83 K, 20000 kPa | 996.08
352.83 K, 25000 kPa | 1000.24
352.83 K, 30000 kPa | 1004.25
352.83 K, 40000 kPa | 1011.8
352.83 K, 50000 kPa | 1018.87
352.83 K, 60000 kPa | 1025.54
352.83 K, 70000 kPa | 1031.82
352.83 K, 80000 kPa | 1037.81
352.83 K, 90000 kPa | 1043.47
352.83 K, 100010 kPa | 1048.95
362.66 K, 100 kPa | 967.3
362.66 K, 1000 kPa | 968.28
362.66 K, 3000 kPa | 970.41
362.66 K, 60000 kPa | 1017.41
362.67 K, 5000 kPa | 972.48
362.67 K, 10000 kPa | 977.45
362.67 K, 15000 kPa | 982.21
362.67 K, 20000 kPa | 986.74
362.67 K, 25000 kPa | 991.07
362.67 K, 30000 kPa | 995.26
362.67 K, 40000 kPa | 1003.16
362.67 K, 50000 kPa | 1010.5
362.67 K, 70000 kPa | 1023.98
362.67 K, 80000 kPa | 1030.14
362.67 K, 90000 kPa | 1036.01
362.67 K, 100000 kPa | 1041.65
